Experimental findings from US7790724B2, “c-fms kinase inhibitors” (Janssen Pharmaceutica N.V., priority 2003, dated 2010) are described below.

Counter-ions that a name gives are not always drawn. Like-named read-outs stand apart in the source and are kept apart here.

The target in this assay is T1, c-fms (Homo sapiens, UniProt P07333).
T1 construct: 3DP
Briefly: autophosphorylation, fluorescence polarization competition immunoassay for c-fms inhibition. The conditions noted are these: for inhibition at 10 µM: read-out: % Inhibition (at 10 μM); for inhibition at 2 µM: @ 2 μM compound (values marked *). It is filed as biochemical. Here is the method:
The assay was performed in black 96-well microplates (LJL BioSystems). The assay buffer used was 100 mM HEPES, pH 7.5, 1 mM DTT, 0.01% (v/v) Tween-20. Compounds were diluted in assay buffer containing 4% DMSO just prior to the assay. […] The kinase reaction was initiated by adding 2 μL of 5 mM ATP (Sigma) in assay buffer. The final concentrations in the assay were 10 nM c-fms, 1 mM ATP, 5 mM MgCl2, 2% DMSO. Control reactions were ran in each plate: in positive and negative control wells, assay buffer (made 4% in DMSO) was substituted for the compound; in addition, positive control wells received 1.2 μL of 50 mM EDTA.
The plates were incubated at room temperature for 45 min. At the end of the incubation, the reaction was quenched with 1.2 μL of 50 mM EDTA (EDTA was not added to the positive control wells at this point; see above). Following a 5-min incubation, each well received 10 μL of a 1:1:3 mixture of anti-phosphotyrosine antibody, 10×, PTK green tracer, 10× (vortexed), FP dilution buffer, respectively (all from PanVera, cat. # P2837). The plate was covered, incubated for 30 min at room temperature and the fluorescence polarization was read on the Analyst. […] The reported IC50 values are averages of three independent measurements.

Where [1] appears, read: 10 nM c-fms, 1 mM ATP, averages of three independent measurements, read-out: IC50.
[2] abbreviates: determined in a similar fashion for Examples 11-68, read-out: IC-50 (activites below 1 μM).

T1 sequence (P07333 20-972): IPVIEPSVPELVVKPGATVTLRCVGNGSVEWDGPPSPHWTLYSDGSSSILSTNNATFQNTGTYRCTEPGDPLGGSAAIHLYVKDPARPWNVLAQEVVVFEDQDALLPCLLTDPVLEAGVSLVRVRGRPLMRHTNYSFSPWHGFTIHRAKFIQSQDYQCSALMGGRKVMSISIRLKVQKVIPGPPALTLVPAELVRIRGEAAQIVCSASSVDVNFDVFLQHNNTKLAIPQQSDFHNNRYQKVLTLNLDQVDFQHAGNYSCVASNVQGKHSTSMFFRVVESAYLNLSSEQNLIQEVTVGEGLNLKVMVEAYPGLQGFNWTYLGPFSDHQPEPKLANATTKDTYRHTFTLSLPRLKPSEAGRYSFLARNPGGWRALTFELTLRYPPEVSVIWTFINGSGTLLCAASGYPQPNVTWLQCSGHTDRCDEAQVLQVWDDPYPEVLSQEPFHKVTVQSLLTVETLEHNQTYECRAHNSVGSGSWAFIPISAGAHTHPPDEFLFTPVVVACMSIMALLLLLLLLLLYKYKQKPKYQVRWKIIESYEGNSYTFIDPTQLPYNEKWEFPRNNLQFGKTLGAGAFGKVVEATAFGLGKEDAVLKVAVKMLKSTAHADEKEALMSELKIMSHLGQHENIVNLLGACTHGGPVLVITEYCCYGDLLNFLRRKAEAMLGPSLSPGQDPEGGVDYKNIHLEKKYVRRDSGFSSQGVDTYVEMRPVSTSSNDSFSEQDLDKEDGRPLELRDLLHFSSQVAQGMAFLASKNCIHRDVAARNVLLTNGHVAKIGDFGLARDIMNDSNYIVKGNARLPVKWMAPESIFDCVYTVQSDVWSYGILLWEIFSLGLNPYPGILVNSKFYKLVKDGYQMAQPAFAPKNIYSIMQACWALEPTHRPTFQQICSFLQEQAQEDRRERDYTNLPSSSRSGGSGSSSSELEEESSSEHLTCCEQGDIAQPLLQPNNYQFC

A word on the inhibition: it is how much of the control response was suppressed. Consider `O=C(Nc1ccccc1N1CCC(CCO)CC1)c1ccc([N+](=O)[O-])o1`, for which, under setting [1], the IC50 is under 1000 nM. The inhibition at 10 µM (at 10 μM compound) is 100%.
In the case of `CC1CCN(c2ccccc2NC(=O)c2ccc(C#N)o2)CC1`, under setting [1], the IC50 was under 1000 nM. In addition, the inhibition at 10 µM (at 10 μM compound) is 97%.
For `N#Cc1ccc(C(=O)Nc2ccccc2N2CCCCC2)o1` the same measures were under 1000 nM and 99%.
On to `O=C(Nc1ccccc1N1CCCCC1)c1cc([N+](=O)[O-])c[nH]1`, for which the IC50 under setting [1] is under 1000 nM. Further, under “at 10 μM compound”, the inhibition at 10 µM turned out to be 99%.
Regarding `O=C(Nc1cc(CO)ccc1N1CCCCC1)c1ccc([N+](=O)[O-])o1`, under setting [1], the IC50 is under 1000 nM. The inhibition at 10 µM (at 10 μM compound) was 100%.
For `N#Cc1ccc(C(=O)Nc2c(F)cccc2N2CCCCC2)o1` the same measures were over 1000 nM and 61%.
Turning to `CC1CCN(c2ccccc2NC(=O)c2ccc([N+](=O)[O-])o2)CC1`, the IC50 is under 1000 nM and the inhibition at 10 µM amounted to 92%.
Turning to `O=C(Nc1ccccc1N1CCC(CO)CC1)c1ccc([N+](=O)[O-])o1`, the IC50 under setting [1] is under 1000 nM. The inhibition at 10 µM (at 10 μM compound) stood at 100%.
For `O=C(Nc1ccccc1N1CCC(O)CC1)c1ccc([N+](=O)[O-])o1` the same measures were under 1000 nM and 98%.
For `O=C(Nc1ccccc1N1CCCCCC1)c1ccc([N+](=O)[O-])o1` the same measures were under 1000 nM and 100%.
With `O=C(Nc1ccccc1N1CCCCC1)c1ccc([N+](=O)[O-])o1`, under “at 10 μM compound”, the inhibition at 10 µM stood at 91%.
Consider `COc1ccc(N2CCCCC2)c(NC(=O)c2ccc(C#N)o2)c1`, for which testing at 2 µM gave an inhibition of 99%. Further, the IC50 under setting [1] is under 1000 nM.
Consider `CC1CCCN(c2ccccc2NC(=O)c2ccc([N+](=O)[O-])o2)C1` (stereo not drawn), for which, under setting [1], the IC50 was under 1000 nM. Further, the inhibition at 10 µM (at 10 μM compound) came out at 96%.
The like results for `Cc1cccc(N2CCCCC2)c1NC(=O)c1ccc(C#N)o1` were, in that order, over 1000 nM and 50%.
The like results for `O=C(Nc1ccccc1N1CCCCC1)c1cc([N+](=O)[O-])ccn1` were, in that order, over 1000 nM and 90%.
The like results for `O=C(Nc1ccccc1N1CCOCC1)c1ccc([N+](=O)[O-])o1` were, in that order, over 1000 nM and 89%.
`O=C(Nc1ccccc1N1CCCCC1)c1ccc(Cl)o1`: under setting [1], the IC50 was over 1000 nM. Besides, the inhibition at 10 µM (at 10 μM compound) is 88%.
The like results for `C[C@H]1CN(c2ccccc2NC(=O)c2ccc([N+](=O)[O-])o2)C[C@H](C)O1` were, in that order, over 1000 nM and 80%.
For `O=C(Nc1ccccc1N1CCCCC1)c1cccc([N+](=O)[O-])c1`, under setting [1], the IC50 was over 1000 nM. Further, for the setting “at 10 μM compound”, the inhibition at 10 µM is 77%.
The like results for `O=C(Nc1ccccc1N1CCCCC1)c1ccc(Br)o1` were, in that order, over 1000 nM and 68%.
For `CC(=O)c1ccc(C(=O)Nc2ccccc2N2CCCCC2)s1` the same measures were over 1000 nM and 60%.
For `C[C@@H]1CN(c2ccccc2NC(=O)c2ccc([N+](=O)[O-])o2)C[C@H](C)O1` the same measures were over 1000 nM and 72%.
As for `O=C(Nc1ccccc1N1CCCCC1)c1n[nH]cc1[N+](=O)[O-]`, the IC50 under setting [1] was over 1000 nM. The inhibition at 10 µM (at 10 μM compound) is 61%.
For `CCOc1ccccc1NC(=O)c1ccc([N+](=O)[O-])o1`, the IC50 under setting [1] was over 1000 nM. Also, the inhibition at 10 µM (at 10 μM compound) is 56%.
For `O=C(O)c1ccc(C(=O)Nc2ccccc2N2CCCCC2)o1` the same measures were over 1000 nM and 24%.
The like results for `O=Cc1ccc(C(=O)Nc2ccccc2N2CCCCC2)o1` were, in that order, over 1000 nM and 86%.
Take `N#Cc1ccc(C(=O)Nc2ccccc2N2CCC(O)CC2)o1`: testing at 2 µM gave an inhibition of 90%. Further, the IC50 under setting [1] is over 1000 nM.
For `N#Cc1ccc(C(=O)Nc2ccccc2N2CCC(CCO)CC2)o1` the same measures were 97% and under 1000 nM.
Regarding `O=C(Nc1cc(F)ccc1N1CCCCC1)c1ccc([N+](=O)[O-])o1`, under setting [1], the IC50 is under 1000 nM.
As to `N#Cc1ccc(C(=O)Nc2ccc(Cl)cc2N2CCCCC2)o1`, the inhibition at 2 µM was 90%. For the same compound, the IC50 under setting [1] was under 1000 nM.
Take `N#Cc1ccc(C(=O)Nc2ccc(F)cc2N2CCCCC2)o1`: the inhibition at 2 µM was determined as 94%. Under setting [1], the IC50 is under 1000 nM.
For `CS(=O)(=O)NCc1ccc(N2CCCCC2)c(NC(=O)c2ccc(C#N)o2)c1` the same measures were 100% and under 1000 nM.
The like results for `N#Cc1ccc(C(=O)Nc2cc(CNCC(O)CO)ccc2N2CCCCC2)o1` (stereo not drawn) were, in that order, 93% and under 1000 nM.
`N#Cc1ccc(N2CCCCC2)c(NC(=O)c2ccc(C#N)o2)c1`: at 2 µM the inhibition was 95%. Also, the IC50 under setting [1] is under 1000 nM.
The like results for `O=C(Nc1ccccc1N1CCCCC1)c1cc([N+](=O)[O-])n[nH]1` were, in that order, 50% and over 1000 nM.
The like results for `N#Cc1ccc(C(=O)Nc2ccccc2N2CCC(CO)CC2)o1` were, in that order, 93% and under 1000 nM.
As to `CC(C)(O)c1ccc(NC(=O)c2nc(C#N)c[nH]2)c(C2=CCCCC2)c1` [Example 12, 4-Cyano-1H-imidazole-2-carboxylic acid [2-cyclohex-1-enyl-4-(1-hydroxy-1-methyl-ethyl)-phenyl]-amide], the IC50 under setting [2] is under 1000 nM.
For the compound `COC(C)(C)c1ccc(NC(=O)c2nc(C#N)c[nH]2)c(C2=CCCCC2)c1` [Example 13, 4-Cyano-1H-imidazole-2-carboxylic acid [2-cyclohex-1-enyl-4-(1-methoxy-1-methyl-ethyl)-phenyl]-amide], the IC50 under setting [2] was under 1000 nM.
The same measure, in the same setting: to `CC(C)(N)c1ccc(NC(=O)c2nc(C#N)c[nH]2)c(C2=CCCCC2)c1` [Example 14, 4-Cyano-1H-imidazole-2-carboxylic acid [4-(1-amino-1-methyl-ethyl)-2-cyclohex-1-enyl-phenyl]-amide, acetic acid salt] belongs under 1000 nM; to `CC(C)c1ccc(NC(=O)c2nc(C#N)c[nH]2)c(C2=CCCCC2)c1` [Example 22, 4-Cyano-1H-imidazole-2-carboxylic acid (2-cyclohex-1-enyl-4-isopropyl-phenyl)-amide], under 1000 nM; to `CC1CCN(c2ccccc2NC(=O)c2nc(C#N)c[nH]2)CC1` [Example 41, 4-Cyano-1H-imidazole-2-carboxylic acid [2-(4-methyl-piperidin-1-yl)-phenyl]-amide trifluoroacetic acid salt], under 1000 nM.
Still for that read-out and setting: to `CC1(C)CC=C(c2ncccc2NC(=O)c2nc(C#N)c[nH]2)CC1` [Example 42, 4-Cyano-1H-imidazole-2-carboxylic acid [2-(4,4-dimethyl-cyclohex-1-enyl)-pyridin-3-yl]-amide trifluoroacetic acid salt] belongs under 1000 nM; to `CC1(C)CCN(c2ncccc2NC(=O)c2nc(C#N)c[nH]2)CC1` [Example 63, 4-Cyano-1H-imidazole-2-carboxylic acid (4,4-dimethyl-3,4,5,6-tetrahydro-2H-[1,2′]bipyridinyl-3′-yl)-amide trifluoroacetic acid salt], under 1000 nM; to `CC1(C)CC=C(c2ccccc2NC(=O)c2nc(C#N)c[nH]2)CC1` [Example 67, 4-Cyano-1H-imidazole-2-carboxylic acid [2-(4,4-dimethyl-cyclohex-1-enyl)-phenyl]-amide], under 1000 nM.
